Columns and labels:
Conditions in all cases: exposure time: 72 h
[1] = system: E13 (patient-derived glioblastoma stem cells of classical subtype); assay: surviving fraction (nuclei count normalised to DMSO); higher = more cells surviving (less toxic)
[2] = system: E21 (patient-derived glioblastoma stem cells of mesenchymal subtype); assay: as above
[3] = system: E28 (patient-derived glioblastoma stem cells of classical subtype); assay: as above
[4] = system: E31 (patient-derived glioblastoma stem cells of proneural subtype); assay: as above
[5] = system: E34 (patient-derived glioblastoma stem cells of proneural subtype); assay: as above
[6] = system: E57 (patient-derived glioblastoma stem cells of mesenchymal subtype); assay: as above
[7] = system: FT3469 (normal neural stem cell line); assay: as above
[8] = system: E13; assay: phenotypic distance (Euclidean, principal components) from DMSO controls (arbitrary units); higher = stronger morphological change
[9] = system: E21; assay: as above
[10] = system: E28; assay: as above
[11] = system: E31; assay: as above
[12] = system: E34; assay: as above
[13] = system: E57; assay: as above
[14] = system: FT3469; assay: as above
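Throughout, for phenotypic distance (Euclidean, principal components) from DMSO controls: cell Painting imaging in 384-well plates, CellProfiler features reduced to at least 20 principal components, Euclidean distance versus same-plate DMSO vehicle wells (0.1% v/v), median over six images per well.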
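Throughout, for surviving fraction (nuclei count normalised to DMSO): nuclei counted by high-content imaging of Hoechst-stained cells in laminin-coated 384-well plates, relative to 0.1% DMSO vehicle wells, with staurosporine as cell-death control.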

Cc1cc(C(C)(C)CC(C)(C)C)ccc1OCCOCC[N+](C)(C)Cc1ccccc1 [Methyl benzethonium chloride]
Conditions	phenotypic distance	surviving fraction
[1], 4.1 nM	–	1.06
[1], 37 nM	–	0.985
[1], 111.1 nM	–	1
[1], 333.3 nM	–	0.905
[1], 1000 nM	–	0.77
[1], 3000 nM	–	0.0607
[2], 4.1 nM	–	1.05
[2], 37 nM	–	1.08
[2], 111.1 nM	–	1.13
[2], 333.3 nM	–	1.09
[2], 1000 nM	–	1.11
[2], 3000 nM	–	0.0579
[3], 4.1 nM	–	1.18
[3], 37 nM	–	1.12
[3], 111.1 nM	–	1.01
[3], 333.3 nM	–	1.03
[3], 1000 nM	–	0.915
[3], 3000 nM	–	0.122
[4], 4.1 nM	–	1.14
[4], 37 nM	–	1.3
[4], 111.1 nM	–	0.971
[4], 333.3 nM	–	1.04
[4], 1000 nM	–	0.959
[4], 3000 nM	–	0.0251
[5], 4.1 nM	–	1.05
[5], 37 nM	–	1.16
[5], 111.1 nM	–	1.28
[5], 333.3 nM	–	1.15
[5], 1000 nM	–	0.97
[5], 3000 nM	–	0.507
[6], 4.1 nM	–	1.1
[6], 37 nM	–	1.08
[6], 111.1 nM	–	0.952
[6], 333.3 nM	–	1.08
[6], 1000 nM	–	0.992
[6], 3000 nM	–	0.232
[7], 4.1 nM	–	1.08
[7], 37 nM	–	1.23
[7], 111.1 nM	–	1.28
[7], 333.3 nM	–	0.993
[7], 1000 nM	–	0.937
[7], 3000 nM	–	0.135
[8], 4.1 nM	0.567	–
[8], 37 nM	0.631	–
[8], 111.1 nM	0.7	–
[8], 333.3 nM	1.46	–
[8], 1000 nM	2.26	–
[8], 3000 nM	7.09	–
[9], 4.1 nM	0.505	–
[9], 37 nM	0.8	–
[9], 111.1 nM	1.42	–
[9], 333.3 nM	1.89	–
[9], 1000 nM	1.88	–
[9], 3000 nM	7.45	–
[10], 4.1 nM	0.909	–
[10], 37 nM	0.85	–
[10], 111.1 nM	0.845	–
[10], 333.3 nM	1.63	–
[10], 1000 nM	1.45	–
[10], 3000 nM	5.99	–
[11], 4.1 nM	0.64	–
[11], 37 nM	1.09	–
[11], 111.1 nM	0.959	–
[11], 333.3 nM	1.67	–
[11], 1000 nM	1.56	–
[11], 3000 nM	10.6	–
[12], 4.1 nM	0.669	–
[12], 37 nM	1.03	–
[12], 111.1 nM	3.75	–
[12], 333.3 nM	1.62	–
[12], 1000 nM	1.37	–
[12], 3000 nM	2.97	–
[13], 4.1 nM	0.767	–
[13], 37 nM	0.775	–
[13], 111.1 nM	0.964	–
[13], 333.3 nM	1.11	–
[13], 1000 nM	1.42	–
[13], 3000 nM	5.11	–
[14], 4.1 nM	0.966	–
[14], 37 nM	0.81	–
[14], 111.1 nM	1.14	–
[14], 333.3 nM	1.12	–
[14], 1000 nM	0.916	–
[14], 3000 nM	5.6	–

Clc1ccc(COC(Cn2ccnc2)c2ccc(Cl)cc2Cl)c(Cl)c1 (stereo not given) [Miconazole]
Conditions	phenotypic distance	surviving fraction
[1], 4.1 nM	–	0.787
[1], 12.3 nM	–	1.01
[1], 37 nM	–	0.925
[1], 111.1 nM	–	0.818
[1], 333.3 nM	–	0.709
[1], 1000 nM	–	0.814
[1], 3000 nM	–	0.539
[2], 4.1 nM	–	0.897
[2], 12.3 nM	–	1.05
[2], 37 nM	–	0.979
[2], 111.1 nM	–	1.01
[2], 333.3 nM	–	1.02
[2], 1000 nM	–	0.955
[2], 3000 nM	–	0.823
[3], 4.1 nM	–	1.09
[3], 12.3 nM	–	1.19
[3], 37 nM	–	1.06
[3], 111.1 nM	–	1.13
[3], 333.3 nM	–	1.07
[3], 1000 nM	–	0.886
[3], 3000 nM	–	0.537
[4], 4.1 nM	–	1
[4], 12.3 nM	–	1.04
[4], 37 nM	–	1.37
[4], 111.1 nM	–	0.936
[4], 333.3 nM	–	1.13
[4], 1000 nM	–	1.06
[4], 3000 nM	–	0.976
[5], 4.1 nM	–	0.9
[5], 12.3 nM	–	0.972
[5], 37 nM	–	1
[5], 111.1 nM	–	0.977
[5], 333.3 nM	–	1.01
[5], 1000 nM	–	0.981
[5], 3000 nM	–	0.82
[6], 4.1 nM	–	1.04
[6], 12.3 nM	–	1.09
[6], 37 nM	–	1.1
[6], 111.1 nM	–	1.06
[6], 333.3 nM	–	1.07
[6], 1000 nM	–	0.918
[6], 3000 nM	–	0.595
[7], 4.1 nM	–	1.17
[7], 12.3 nM	–	1.07
[7], 37 nM	–	0.966
[7], 111.1 nM	–	0.907
[7], 333.3 nM	–	0.954
[7], 1000 nM	–	0.875
[7], 3000 nM	–	0.492
[8], 4.1 nM	0.853	–
[8], 12.3 nM	0.53	–
[8], 37 nM	0.487	–
[8], 111.1 nM	0.696	–
[8], 333.3 nM	1.05	–
[8], 1000 nM	1.1	–
[8], 3000 nM	2.12	–
[9], 4.1 nM	0.64	–
[9], 12.3 nM	0.477	–
[9], 37 nM	0.693	–
[9], 111.1 nM	0.637	–
[9], 333.3 nM	0.796	–
[9], 1000 nM	1.19	–
[9], 3000 nM	2.32	–
[10], 4.1 nM	0.619	–
[10], 12.3 nM	0.863	–
[10], 37 nM	0.65	–
[10], 111.1 nM	0.493	–
[10], 333.3 nM	0.784	–
[10], 1000 nM	0.766	–
[10], 3000 nM	1.23	–
[11], 4.1 nM	0.925	–
[11], 12.3 nM	0.493	–
[11], 37 nM	1.32	–
[11], 111.1 nM	0.834	–
[11], 333.3 nM	1.3	–
[11], 1000 nM	1.07	–
[11], 3000 nM	1.51	–
[12], 4.1 nM	0.501	–
[12], 12.3 nM	0.465	–
[12], 37 nM	0.883	–
[12], 111.1 nM	0.636	–
[12], 333.3 nM	0.903	–
[12], 1000 nM	0.701	–
[12], 3000 nM	1.2	–
[13], 4.1 nM	0.349	–
[13], 12.3 nM	0.269	–
[13], 37 nM	0.652	–
[13], 111.1 nM	1.25	–
[13], 333.3 nM	0.929	–
[13], 1000 nM	1.89	–
[13], 3000 nM	3.89	–
[14], 4.1 nM	0.444	–
[14], 12.3 nM	0.593	–
[14], 37 nM	0.461	–
[14], 111.1 nM	0.559	–
[14], 333.3 nM	0.587	–
[14], 1000 nM	0.791	–
[14], 3000 nM	2.66	–

OCCN1C[C@H](O)[C@@H](O)[C@H](O)[C@H]1CO [Miglitol]
Conditions	phenotypic distance	surviving fraction
[1], 4.11523 nM	–	0.886
[1], 12.34567901 nM	–	0.888
[1], 37.037 nM	–	0.938
[1], 111.1111111 nM	–	0.955
[1], 333.333 nM	–	0.951
[1], 1000 nM	–	0.889
[1], 3000 nM	–	0.98
[2], 4.11523 nM	–	0.916
[2], 12.34567901 nM	–	0.86
[2], 37.037 nM	–	0.996
[2], 111.1111111 nM	–	0.946
[2], 333.333 nM	–	0.949
[2], 1000 nM	–	0.914
[2], 3000 nM	–	0.993
[3], 4.11523 nM	–	0.997
[3], 12.34567901 nM	–	0.913
[3], 37.037 nM	–	1.12
[3], 111.1111111 nM	–	0.877
[3], 333.333 nM	–	1.06
[3], 1000 nM	–	1.14
[3], 3000 nM	–	1.03
[4], 4.11523 nM	–	0.768
[4], 12.34567901 nM	–	1.15
[4], 37.037 nM	–	0.954
[4], 111.1111111 nM	–	0.999
[4], 333.333 nM	–	1.01
[4], 1000 nM	–	1.17
[4], 3000 nM	–	0.956
[5], 4.11523 nM	–	0.825
[5], 12.34567901 nM	–	1.07
[5], 37.037 nM	–	0.964
[5], 111.1111111 nM	–	1.17
[5], 333.333 nM	–	1.04
[5], 1000 nM	–	0.915
[5], 3000 nM	–	1.14
[6], 4.11523 nM	–	1.03
[6], 12.34567901 nM	–	1.03
[6], 37.037 nM	–	1.06
[6], 111.1111111 nM	–	0.966
[6], 333.333 nM	–	0.955
[6], 1000 nM	–	0.997
[6], 3000 nM	–	1.1
[7], 4.11523 nM	–	0.878
[7], 12.34567901 nM	–	0.954
[7], 37.037 nM	–	0.984
[7], 111.1111111 nM	–	0.963
[7], 333.333 nM	–	1.06
[7], 1000 nM	–	1.07
[7], 3000 nM	–	1.14
[8], 4.11523 nM	0.578	–
[8], 12.34567901 nM	0.499	–
[8], 37.037 nM	0.296	–
[8], 111.1111111 nM	0.445	–
[8], 333.333 nM	0.7	–
[8], 1000 nM	0.441	–
[8], 3000 nM	0.584	–
[9], 4.11523 nM	0.913	–
[9], 12.34567901 nM	0.734	–
[9], 37.037 nM	0.73	–
[9], 111.1111111 nM	0.986	–
[9], 333.333 nM	0.413	–
[9], 1000 nM	0.51	–
[9], 3000 nM	0.737	–
[10], 4.11523 nM	0.488	–
[10], 12.34567901 nM	0.943	–
[10], 37.037 nM	1.54	–
[10], 111.1111111 nM	0.838	–
[10], 333.333 nM	0.651	–
[10], 1000 nM	0.777	–
[10], 3000 nM	0.637	–
[11], 4.11523 nM	0.64	–
[11], 12.34567901 nM	0.762	–
[11], 37.037 nM	0.853	–
[11], 111.1111111 nM	0.501	–
[11], 333.333 nM	0.613	–
[11], 1000 nM	0.778	–
[11], 3000 nM	0.647	–
[12], 4.11523 nM	0.65	–
[12], 12.34567901 nM	0.713	–
[12], 37.037 nM	0.625	–
[12], 111.1111111 nM	0.702	–
[12], 333.333 nM	0.456	–
[12], 1000 nM	0.679	–
[12], 3000 nM	0.758	–
[13], 4.11523 nM	0.469	–
[13], 12.34567901 nM	0.849	–
[13], 37.037 nM	0.936	–
[13], 111.1111111 nM	0.643	–
[13], 333.333 nM	0.643	–
[13], 1000 nM	0.624	–
[13], 3000 nM	0.981	–
[14], 4.11523 nM	3.01	–
[14], 12.34567901 nM	0.609	–
[14], 37.037 nM	0.908	–
[14], 111.1111111 nM	0.767	–
[14], 333.333 nM	0.996	–
[14], 1000 nM	0.816	–
[14], 3000 nM	0.734	–

Reference: the supplement of paper PMC13207355
